From the supplement of paper PMC10307832

Experiments:
Test in all cases: relative viability (nuclei count vs DMSO), 5 days (fraction); higher = more cells survive
Decitabine + Phenformin = compound: Nc1ncn([C@H]2C[C@H](O)[C@@H](CO)O2)c(=O)n1 [Decitabine] + N=C(N)NC(=N)NCCc1ccccc1 [Phenformin] (partner 250 µM)
In short: (§1)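 Lung cancer cell lines were seeded in 1536-well plates and dosed by pin tool the next day, with either a single drug or a fixed anchor-drug dose combined with five library-drug doses (not always all listed) spaced in √10 steps. Five days later, one step fixed the cells and stained their nuclei (final 0.05% Triton X-100, 1% formaldehyde, 1 ug/ml Hoechst), and nuclei were counted on 4× images. Relative viability is the nuclei count in treated wells divided by the count in vehicle wells, and each value is the median of duplicate plates.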

Decitabine + AZD7762 = compound: Nc1ncn([C@H]2C[C@H](O)[C@@H](CO)O2)c(=O)n1 [Decitabine] + NC(=O)Nc1cc(-c2cccc(F)c2)sc1C(=O)N[C@H]1CCCNC1 [AZD7762] (partner 0.2 µM)
In short: as §1

Decitabine + Olaparib = compound: Nc1ncn([C@H]2C[C@H](O)[C@@H](CO)O2)c(=O)n1 [Decitabine] + O=C(c1cc(Cc2n[nH]c(=O)c3ccccc23)ccc1F)N1CCN(C(=O)C2CC2)CC1 [Olaparib] (partner 8 µM)
In short: as §1

Halofuginone + Olaparib = compound: O=C(C[C@H]1NCCC[C@@H]1O)Cn1cnc2cc(Br)c(Cl)cc2c1=O (racemic) [Halofuginone] + O=C(c1cc(Cc2n[nH]c(=O)c3ccccc23)ccc1F)N1CCN(C(=O)C2CC2)CC1 [Olaparib] (partner 8 µM)
In short: as §1

Cell Line	relative viability (Decitabine + Phenformin; first compound 0.04 µM)	relative viability (Decitabine + Phenformin; first compound 0.1265 µM)	relative viability (Decitabine + Phenformin; first compound 0.4 µM)	relative viability (Decitabine + Phenformin; first compound 1.265 µM)	relative viability (Decitabine + Phenformin; first compound 4 µM)	relative viability (Decitabine + AZD7762; first compound 0.04 µM)	relative viability (Decitabine + AZD7762; first compound 0.1265 µM)	relative viability (Decitabine + AZD7762; first compound 0.4 µM)	relative viability (Decitabine + AZD7762; first compound 1.265 µM)	relative viability (Decitabine + AZD7762; first compound 4 µM)	relative viability (Decitabine + Olaparib; first compound 0.04 µM)	relative viability (Decitabine + Olaparib; first compound 0.1265 µM)	relative viability (Decitabine + Olaparib; first compound 0.4 µM)	relative viability (Decitabine + Olaparib; first compound 1.265 µM)	relative viability (Decitabine + Olaparib; first compound 4 µM)	relative viability (Halofuginone + Olaparib; first compound 0.001 µM)	relative viability (Halofuginone + Olaparib; first compound 0.003162 µM)	relative viability (Halofuginone + Olaparib; first compound 0.01 µM)	relative viability (Halofuginone + Olaparib; first compound 0.03162 µM)	relative viability (Halofuginone + Olaparib; first compound 0.1 µM)
LK-2	0.376	0.522	0.375	0.295	0.244	0.299	0.37	0.288	0.256	0.14	0.497	0.38	0.297	0.211	0.24	0.806	0.623	0.673	0.833	0.607
LOU-NH91	0.442	0.724	0.732	0.588	0.659	0.735	0.847	0.732	0.72	0.73	0.667	0.742	0.649	0.577	0.601	0.958	0.93	0.853	0.925	0.81
LU99A	0.825	1	0.757	0.648	0.627	0.373	0.376	0.335	0.32	0.29	0.247	0.238	0.217	0.193	0.187	0.268	0.257	0.25	0.248	0.286
LXF-289	0.431	0.371	0.263	0.26	0.228	0.82	0.756	0.47	0.316	0.332	0.302	0.255	0.203	0.157	0.128	1.02	1.03	1.06	1.07	0.815
NCI-H23	0.579	0.548	0.297	0.242	0.244	0.196	0.271	0.154	0.131	0.162	0.229	0.2	0.166	0.134	0.154	0.409	0.291	0.326	0.271	0.223
NCI-H322M	0.647	0.745	0.6	0.478	0.549	0.546	0.619	0.478	0.445	0.501	0.641	0.684	0.646	0.47	0.383	0.821	0.535	0.781	0.624	0.5
NCI-H358	0.246	0.258	0.168	0.148	0.136	0.554	0.527	0.413	0.272	0.328	0.27	0.182	0.165	0.1	0.106	0.653	0.556	0.459	0.26	0.124
NCI-H441	0.494	0.428	0.306	0.289	0.231	0.422	0.428	0.287	0.259	0.254	0.151	0.219	0.157	0.128	0.136	0.591	0.537	0.56	0.455	0.238
NCI-H460	0.473	0.473	0.472	0.223	0.157	0.576	0.593	0.361	0.134	0.105	0.176	0.118	0.0739	0.0563	0.0657	0.417	0.416	0.466	0.415	0.083
NCI-H522	0.564	0.674	0.514	0.552	0.65	0.819	0.692	0.571	0.567	0.591	0.544	0.564	0.544	0.548	0.47	0.621	0.665	0.631	0.672	0.628
NCI-H596	0.815	0.666	–	0.582	0.53	1.07	1.14	0.699	0.913	0.881	0.609	0.602	0.353	0.431	0.56	0.756	0.737	0.655	0.752	0.549
NCI-H647	0.372	0.399	0.25	0.101	0.172	0.345	0.438	0.247	0.139	0.151	0.154	0.131	0.103	0.0693	0.0747	0.637	0.746	0.517	0.442	0.11
NCI-H650	0.432	0.408	0.321	0.346	0.291	0.775	0.618	0.427	0.388	0.346	0.196	0.198	0.203	0.123	0.152	0.395	0.389	0.408	0.36	0.286
NCI-H727	0.549	0.503	0.367	0.423	0.362	0.562	0.588	0.427	0.462	0.574	0.643	0.54	0.685	0.55	0.481	0.79	0.683	0.787	0.727	0.518
NCI-H838	0.398	0.409	0.247	0.266	0.242	0.74	0.753	0.815	0.68	0.659	0.26	0.273	0.261	0.193	0.199	0.817	0.784	0.734	0.527	0.107
NCI-H1355	0.432	0.385	0.338	0.277	0.323	0.442	0.473	0.376	0.267	0.241	0.33	0.348	0.245	0.194	0.195	0.785	0.805	0.611	0.754	0.7
